Laboratory results from US20220062250A1, “COMBINATION OF A SK2 INHIBITOR AND AN INHIBITOR OF A CHECKPOINT PATHWAY, USES AND PHARMACEUTICAL COMPOSITIONS THEREOF” (Apogee Biotechnology Corporation, priority 2019, published 2022).

How the values were obtained:
Neuro-2a = assay: Surface expression of calreticulin by flow cytometry, Neuro-2a; assay type: cell-based, murine; conditions: Neuro-2a (Neuroblastoma); 40 μM ABC294640, 24 hours; relative to DMSO control = 1.0; logarithmic scale
Protocol: (§1) One indicator that tumor cells are undergoing immunogenic cell death (ICD) is increased expression of calreticulin on the surface of the cells. Calreticulin is normally expressed in the endoplasmic reticulum (ER) of cells; however, when cells are treated with an agent that promotes ER stress, calreticulin expression can be observed on the external surface of the cells. Promotion of ER stress is a typical mechanism for inducing ICD, and therefore measuring the surface expression of calreticulin is an established method for determining if a compound causes ICD. The effects of ABC294640, an inhibitor of sphingosine kinase-2, on the surface expression of calreticulin in several different types of tumor cells were examined. […] The cells were then incubated with a fluorescently labeled antibody that selectively binds to calreticulin, washed and then analyzed by flow cytometry to quantify the amount of surface calreticulin on many individual cells. The resulting data is analyzed by determining the geometric mean of the fluorescence intensity for the population of cells using algorithms well known in the field of flow cytometry. […] The geometric mean of the fluorescence intensity for cell samples treated with DMSO was expressed as 1.0 and the data for cell samples treated with ABC294640 were expressed relative to the DMSO control. […]

PAN02 = assay: Surface expression of calreticulin by flow cytometry, PAN02; assay type: cell-based; conditions: PAN02 (Pancreas); 40 μM ABC294640, 24 hours; relative to DMSO control = 1.0; logarithmic scale (2.0 = 10-fold increase)
Protocol: as §1

B16-F10 = assay: Surface expression of calreticulin by flow cytometry, B16-F10; assay type: cell-based, murine; conditions: B16-F10 (Melanoma); 40 μM ABC294640, 24 hours; relative to DMSO control = 1.0; logarithmic scale
Protocol: as §1

TRAMP-C2 = assay: Surface expression of calreticulin by flow cytometry, TRAMP-C2; assay type: cell-based; conditions: TRAMP-C2 (Prostate); 40 μM ABC294640, 24 hours; relative to DMSO control = 1.0; logarithmic scale
Protocol: as §1

LLC tumors = assay: LLC tumor model, ABC294640 in combination with anti-CTLA4 antibody (Example 9); assay type: in vivo, mice
Protocol: The combined effects of treating tumor-bearing mice with ABC294640 and anti-CTLA41 antibody were examined in the LLC tumor model. Anti-mouse CTLA-4 (catalog number BE0131) antibody was purchased from BioXCell (West Lebanon, N.H.). Mice were injected with 1,000,000 LLC cells suspended in PBS into the right hind flank subcutaneously on Day 0 of the experiment. Mice were randomized On Day 3 of the experiment into the following four treatment groups (n=5/group): Control (vehicle only); ABC294640 alone; anti-CTLA4 antibody alone; and ABC294640 in combination with anti-CTLA4 antibody. ABC294640 was suspended in vehicle (46.7% PEG, 46.7% saline and 6.6% ethanol) and dosed by oral gavage at 50 mg/kg 5 days/week (i.e. days 3-7, 10-14, 17-21, etc.) until sacrifice. Anti-CTLA4 antibody was suspended in dilution buffer (BioXCell, catalog number IP0070) and administered by intraperitoneal (i.p.) injection at a dose of 200 μg/mouse on Days 3, 6, 10, 13, 17 and 20. The combination treatment group mice received antibody and ABC294640 treatments concomitantly on days when antibody was scheduled. Control group mice received oral vehicle and/or sterile PBS i.p. on all days that treated mice received either ABC294640 or antibody. Tumors were measured with digital calipers three times per week and volumes were calculated using the formula, (L×W^2)/2. Mice were euthanized when tumor volumes reached ≥3,000 mm^3. […] Tumors in the Control mice grew progressively after a lag of approximately 7 days. On Day 21, the average tumor volumes for the Control, ABC294640 alone, anti-CTLA4 antibody alone, and combination treatment groups were 4622±548, 3197±914, 3029±675 and 1274±336 mm^3, respectively. […] As directed by the IACUC protocol, each mouse was sacrificed when its tumor volume reached 3,000 mm^3. […] The combination of ABC294640 plus anti-CTLA4 antibody increased median survival to >26 days, and 60% of these mice survived to Day 26.

B16 tumors [1] = assay: B16 tumor model, ABC294640 in combination with anti-PD-1 antibody (Example 8); assay type: in vivo, C57BL/6 mice
Protocol: Agents that induce ICD may enhance the antitumor activity of checkpoint antibodies. […] Anti-mouse PD-1 (Catalog number BE0146) antibody was purchased from BioXCell (West Lebanon, N.H.). C57BL/6 mice were injected with 100,000 B16 cells suspended in PBS into the right hind flank subcutaneously on Day 0 of the experiment. Mice were randomized on Day 3 of the experiment into the following four treatment groups (n=10/group): Control (vehicle only); ABC294640 alone; anti-PD-1 antibody alone; and ABC294640 in combination with anti-PD-1 antibody. ABC294640 was suspended in vehicle (46.7% PEG, 46.7% saline and 6.6% ethanol) and dosed by oral gavage at 50 mg/kg 5 days/week (i.e. days 3-7, 10-14, 17-21, etc.) until sacrifice. Anti-PD-1 antibody was suspended in sterile PBS, and administered by intraperitoneal (i.p.) injection at a dose of 200 μg/mouse on Days 3, 6 and 10. The combination treatment group mice received antibody and ABC294640 treatments concomitantly on days when antibody was scheduled. Control group mice received oral vehicle and/or sterile PBS i.p. on all days that treated mice received either ABC294640 or antibody. Tumors were measured with digital calipers three times per week and volumes were calculated using the formula, (L×W^2)/2. Mice were euthanized when tumor volumes reached ≥3,000 mm^3. […] Tumors in the Control mice grew very aggressively after a lag of approximately 10 days. On Day 19, the average tumor volumes for the Control, ABC294640 alone, anti-PD-1 antibody alone, and combination treatment groups were 1702±373, 892±364, 783±265 and 190±114 mm^3, respectively. […] As directed by the IACUC protocol, each mouse was sacrificed when its tumor volume reached 3,000 mm^3. […] Treatment with ABC294640 alone provided a median survival of 24 days and 30% of the mice were alive on Day 56 when the experiment was terminated (p=0.009).

Lewis Lung carcinoma = assay: Surface expression of calreticulin by flow cytometry, Lewis Lung carcinoma; assay type: cell-based, murine; conditions: 40 μM ABC294640, 24 hours, relative to DMSO control = 1.0, logarithmic scale
Protocol: as §1

E0771 = assay: Surface expression of calreticulin by flow cytometry, E0771; assay type: cell-based; conditions: E0771 (Breast); 40 μM ABC294640, 24 hours; relative to DMSO control = 1.0; logarithmic scale
Protocol: as §1

B16 tumors [2] = assay: B16 tumor model, ABC294640 in combination with anti-PD-L1 antibody (Example 10); assay type: in vivo, mice; conditions: B16 tumors ≥300 mm^3 at randomization (Day 1); ABC294640 50 mg/kg oral gavage 5 days/week; anti-PD-L1 antibody 200 μg/mouse i.p. Days 1, 3, 5 and 7; Vehicle 8.5
Protocol: The combined effects of treating tumor-bearing mice with ABC294640 and anti-PD-L1 antibody were examined in the B16 tumor model. Anti-mouse PD-L1 (catalog number BE0101) antibody was purchased from BioXCell (West Lebanon, N.H.). Mice were injected with 100,000 B16 cells suspended in PBS into the right hind flank subcutaneously on Day 0 of the experiment. When the tumor reached a volume of ≥300 mm^3, mice were randomized into the following four treatment groups (n=5-6/group): Control (vehicle only); ABC294640 alone; anti-PD-L1 antibody alone; and ABC294640 in combination with anti-PD-L1 antibody. The day of randomization is noted as Day 1 of the experiment for each mouse. ABC294640 was suspended in vehicle (46.7% PEG, 46.7% saline and 6.6% ethanol) and dosed by oral gavage at 50 mg/kg 5 days/week until sacrifice. Anti-PD-L1 antibody was suspended in dilution buffer (BioXCell, catalog number IP0070) and administered by intraperitoneal (i.p.) injection at a dose of 200 μg/mouse on Days 1, 3, 5 and 7. The combination treatment group mice received antibody and ABC294640 treatments concomitantly on days when antibody was scheduled. Control group mice received oral vehicle and/or sterile PBS i.p. on all days that treated mice received either ABC294640 or antibody. Tumors were measured with digital calipers three times per week and volumes were calculated using the formula, (L×W^2)/2. […]

[3] = given intravenously every 2 weeks; cited from earlier work

Compound	Surface calreticulin expression (Geometric mean of fluorescence intensity) (Neuro-2a)	Surface calreticulin expression (Geometric mean of fluorescence intensity) (PAN02)	Surface calreticulin expression (Geometric mean of fluorescence intensity) (B16-F10)	Surface calreticulin expression (Geometric mean of fluorescence intensity) (TRAMP-C2)	median survival (LLC tumors; LLC tumor-bearing mice, sacrificed at tumor volume 3,000 mm^3, Control 19 days) [days]	average tumor volume (LLC tumors; LLC tumors, Day 21, ABC294640 50 mg/kg oral gavage 5 days/week, anti-CTLA4 antibody 200 μg/mouse i.p. Days 3, 6, 10, 13, 17 and 20, Control 4622±548) [mm^3]	growth of LLC lung tumors (FIG. 8) (LLC tumors; in words)	survival of mice bearing LLC tumors (FIG. 9) (LLC tumors; in words)	median survival (B16 tumors [1]; B16 tumor-bearing mice, sacrificed at tumor volume 3,000 mm^3, Control 21 days) [days]	mice alive on Day 56 (B16 tumors [1]; B16 tumor-bearing mice, experiment terminated Day 56, all Control animals sacrificed by Day 29) [%]	average tumor volume (B16 tumors [1]; B16 tumors, Day 19, ABC294640 50 mg/kg oral gavage 5 days/week, anti-PD-1 antibody 200 μg/mouse i.p. Days 3, 6 and 10, Control 1702±373) [mm^3]	growth of B16 melanoma tumors (FIG. 6) (B16 tumors [1]; in words)	survival of mice bearing B16 melanoma tumors (FIG. 7) (B16 tumors [1]; in words)	Surface calreticulin expression (Geometric mean of fluorescence intensity) (Lewis Lung carcinoma)	Surface calreticulin expression (Geometric mean of fluorescence intensity) (E0771)	median survival (B16 tumors [2]) [days]	tolerated dose [3]
O=C(NCc1ccncc1)C12CC3CC(C1)CC(c1ccc(Cl)cc1)(C3)C2 [ABC294640, 3-(4-chlorophenyl)-adamantane-1-carboxylic acid (pyridin-4-ylmethyl)amide]	3.0	2.31	2.7	3.64	22	3197±914	partially inhibited	slightly prolonged	24	30	892±364	partially inhibited	slightly prolonged	3.0	1.46	10	–
nivolumab	–	–	–	–	–	–	–	–	–	–	–	–	–	–	–	–	up to 10 mg/kg
